# Results published in article PMC8162438, “Cancer cell-selective modulation of mitochondrial respiration and metabolism by potent organogold(III) dithiocarbamates” (Chemical Science, 2020).
# Test system: MDA-MB-231
# Experiment: Cell fraction gold uptake by GF-AAS
# Assay type: cell-based
# Conditions: MDA-MB-231, 5 μM, 24 h
# Protocol: We next performed cellular uptake studies to determine what percentage of the compounds were getting into the cell after treatment. Given that most therapeutic targets are localized receptors on the plasma membrane, quantifying the amount of gold compounds in cellular fractions and investigating their mode of uptake is crucial. For whole-cell uptake studies, MDA-MB-231 were treated with all 10 compounds and Auranofin at 5 μM for 24 h (Fig. 5A). Auranofin is the only gold-based therapeutic to be clinically approved, therefor we used this drug as a benchmark for comparison.[67] After treatment, the cells were washed with PBS, centrifuged, and digested with 0.5 mL of conc. HNO3 and diluted with DI water and subjected to ICP-OES analysis. […] Given that these complexes readily react with nucleophilic biological molecules and the lack of accumulation in the nuclear fraction, it is evident that the mechanism of action of this class of compounds is differentiated from the clinically available platinum agents. […]
# and treated at a final concentration of 5 µ M and treated for 24 hours as well. The cells were then collected by trypsinization and centrifuged at 2000 rpm for 5 minutes to form a pellet. The pellet was suspended in 1 mL of DMEM, transferred to a 1.5 mL Eppendorf tube, and centrifuged again at 2000 rpm for 5 minutes. […]
structure (smiles),measurement,value
C[N+](C)=C1[S][Au-2]2([S]1)[c]1ccccc1Cc1cccc[n+]12.F[P-](F)(F)(F)(F)F (stereo not shown) [2a],Au content localized in the cytoplasm and total membrane fraction (pellet),> 90%
